The source of these data is patent US10821100B2, “Triazolone compounds as mPGES-1 inhibitors” (Glenmark Pharmaceuticals S.A., priority 2012, dated 2020).

The experiment concerns the target T1, Recombinant human mPGES-1 (Homo sapiens, UniProt O14684).
T1 construct: made in house; host or cells: CHO cells (crude microsomal fractions)
T1 sequence (O14684 1-152): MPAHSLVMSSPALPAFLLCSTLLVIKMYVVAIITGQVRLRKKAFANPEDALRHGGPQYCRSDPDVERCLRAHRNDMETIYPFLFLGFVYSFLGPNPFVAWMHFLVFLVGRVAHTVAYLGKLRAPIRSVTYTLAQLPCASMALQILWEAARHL
Nature of the experiment: In-vitro screening of mPGES-1 inhibitors (inhibition of PGE2 formation from PGH2, HTRF detection). In kind it is biochemical. Conditions: mPGES-1 enzyme; for inhibition at 1 µM: 1 μM test compound, read-out: Percentage inhibition at 1 μM; for inhibition at 1 µM / inhibition at 10 µM: crude microsomal fractions; for inhibition at 10 µM: 10 μM test compound, read-out: Percentage inhibition at 10 μM; for IC50: class symbols. Put shortly:
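Crude CHO-expressed microsomes (40–60 μg/mL protein) preincubated 10 min with compound in 0.1 M potassium phosphate/2 mM EDTA containing 2.5 mM GSH, 0.5% DMSO final. PGH2 (15 μM) reacted 1 min, stopped with stannous chloride. PGE2 quantified by HTRF, IC50 from nonlinear regression of percent inhibition.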

SMILES strings stand for the structures.

For `CC(C)(C)C(=O)NCc1ccc(Cl)c(-c2nn(-c3ccc(Cl)c(C(F)(F)F)c3)c(=O)[nH]2)c1` [Example-157, N-(4-Chloro-3-(1-(4-chloro-3-(trifluoromethyl)phenyl)-4,5-dihydro-5-oxo-1H-1,2,4-triazol-3-yl)benzyl)pivalamide], the inhibition at 1 µM was 98.5%, the inhibition at 10 µM turned out to be 96.5% and the IC50 is less than 50 nM.

Consider `COc1cc(-c2nn(-c3c(Cl)cccc3Cl)c(=O)[nH]2)ccc1NC(=O)c1cc(F)cc(F)c1` [Example-177, N-(4-(1-(2,6-Dichlorophenyl)-4,5-dihydro-5-oxo-1H-1,2,4-triazol-3-yl)-2-methoxyphenyl)-3,5-difluorobenzamide], for which the inhibition at 1 µM is 29.9% and the inhibition at 10 µM is 71.1%.

`COc1cc(-n2nc(-c3c(F)cccc3Cl)[nH]c2=O)ccc1C(=O)Nc1nnc(C(F)(F)F)s1` [Example-48, 4-(3-(2-Chloro-6-fluorophenyl)-5-oxo-4,5-dihydro-1H-1,2,4-triazol-1-yl)-2-methoxy-N-(5-(trifluoromethyl)-1,3,4-thiadiazol-2-yl)benzamide]: the inhibition at 1 µM is 98.3%, the inhibition at 10 µM is 100% and the IC50 is less than 50 nM.

As for `O=c1[nH]c(-c2c(F)cccc2Cl)nn1-c1ccc(Nc2cccc(C(F)(F)F)c2)cc1` [Example-9, 5-(2-Chloro-6-fluorophenyl)-2-(4-{[3-(trifluoromethyl)phenyl]amino}phenyl)-2,4-dihydro-3H-1,2,4-triazol-3-one], the inhibition at 1 µM was determined as 1.53% and the inhibition at 10 µM is 23.2%.

`CC(C)(C)C(=O)NCc1ccc(Cl)c(-c2nn(-c3cccc(C(F)(F)F)c3)c(=O)[nH]2)c1` [Example-142, N-(4-Chloro-3-(1-(3-(trifluoromethyl)phenyl)-4,5-dihydro-5-oxo-1H-1,2,4-triazol-3-yl)benzyl)pivalamide]: the inhibition at 1 µM was found to be 97.2%, the inhibition at 10 µM was 94% and the 50% inhibitory concentration (IC50) was less than 50 nM.

As for `O=c1[nH]c(-c2cc(S(=O)(=O)NC3CC3)ccc2Cl)nn1-c1ccc(C(F)(F)F)cc1` [Example-96, 4-Chloro-N-cyclopropyl-3-(5-oxo-1-(4-(trifluoromethyl)phenyl)-4,5-dihydro-1H-1,2,4-triazol-3-yl)benzenesulfonamide], the inhibition at 1 µM stood at 52.2% and the inhibition at 10 µM was 68.7%.

For `CC(C)(C)C(=O)NCc1ccc(Cl)c(-n2nc(-c3ccc(COCC(F)(F)F)cc3)[nH]c2=O)c1` [Example-152, N-(3-(3-(4-((2,2,2-Trifluoroethoxy)methyl)phenyl)-4,5-dihydro-5-oxo-1,2,4-triazol-1-yl)-4-chlorobenzyl)pivalamide], the inhibition at 1 µM worked out at 96%, the inhibition at 10 µM is 100% and the IC50 was less than 50 nM.

Consider `CC(C)C(=O)NCc1ccc(Cl)c(-n2nc(-c3ccc(C#CC(C)(C)C)c(F)c3)[nH]c2=O)c1` [Example-149, N-(4-Chloro-3-(3-(3-fluoro-4-(3,3-dimethylbut-1-ynyl)phenyl)-4,5-dihydro-5-oxo-1,2,4-triazol-1-yl)benzyl)isobutyramide], for which the inhibition at 1 µM turned out to be 98.3%, the inhibition at 10 µM came out at 94.6% and the IC50 was less than 50 nM.

Regarding `O=C(NCc1cc(-c2nn(-c3ccc(Cl)cc3)c(=O)[nH]2)c(Cl)cc1F)c1ccccc1F` [Example-132, N-(4-Chloro-5-(1-(4-chlorophenyl)-4,5-dihydro-5-oxo-1H-1,2,4-triazol-3-yl)-2-fluorobenzyl)-2-fluorobenzamide], the inhibition at 1 µM came out at 91.8%, the inhibition at 10 µM amounted to 89.8% and the IC50 is less than 50 nM.

`CC(C)(C)C(=O)NCc1ccc(Cl)c(-n2nc(-c3ccc(F)c(C(F)(F)F)c3)[nH]c2=O)c1` [Example-148, N-(4-Chloro-3-(3-(4-fluoro-3-(trifluoromethyl)phenyl)-4,5-dihydro-5-oxo-1,2,4-triazol-1-yl)benzyl)pivalamide]: the inhibition at 1 µM was 98.9%, the inhibition at 10 µM is 97.8% and the concentration for half-maximal inhibition (IC50) is less than 50 nM.

Consider `CC(C)c1nnc(-c2ccc(-c3nn(-c4cc(CNC(=O)C(C)(C)C)ccc4Cl)c(=O)[nH]3)cc2)o1` [Example-153, N-(4-Chloro-3-(4,5-dihydro-3-(4-(5-isopropyl-1,3,4-oxadiazol-2-yl)phenyl)-5-oxo-1,2,4-triazol-1-yl)benzyl)pivalamide], for which the inhibition at 1 µM came out at 93.9%, the inhibition at 10 µM worked out at 99.7% and the IC50 was in the range of 50 to 100 nM.

`COc1cc(-n2nc(-c3c(Cl)cccc3Cl)[nH]c2=O)ccc1-c1nc(-c2ccc(Cl)cc2)no1` [Example-49, 1-(4-(3-(4-Chlorophenyl)-1,2,4-oxadiazol-5-yl)-3-methoxyphenyl)-3-(2,6-dichlorophenyl)-1H-1,2,4-triazol-5(4H)-one]: the inhibition at 1 µM is 89.2%, the inhibition at 10 µM is 96.3% and the IC50 was less than 50 nM.

Turning to `Cc1cc(C(F)(F)F)ccc1-n1nc(-c2cc(CNC(=O)C(C)(C)C)ccc2Cl)[nH]c1=O` [Example-159, N-(4-Chloro-3-(1-(4-(trifluoromethyl)-2-methylphenyl)-4,5-dihydro-5-oxo-1H-1,2,4-triazol-3-yl)benzyl)pivalamide], the inhibition at 1 µM amounted to 75.4%, the inhibition at 10 µM came to 96.8% and the IC50 was more than 100 nM.

As to `CC(C)(CO)C(=O)NCc1ccc(Cl)c(-c2nn(-c3ccc(C(F)(F)F)cc3)c(=O)[nH]2)c1` [Example-115, N-(4-Chloro-3-(1-(4-(trifluoromethyl)phenyl)-4,5-dihydro-5-oxo-1H-1,2,4-triazol-3-yl)benzyl)-3-hydroxy-2,2-dimethylpropanamide], the inhibition at 1 µM turned out to be 96.5%, the inhibition at 10 µM is 98.2% and the IC50 is less than 50 nM.

As for `Cc1ccc(CNC(=O)C(C)(C)CF)c(C)c1-c1nn(-c2ccc(C#CC3CC3)cc2)c(=O)[nH]1` [Example-169, N-(3-(1-(4-(2-Cyclopropylethynyl)phenyl)-4,5-dihydro-5-oxo-1H-1,2,4-triazol-3-yl)-2,4-dimethylbenzyl)-3-fluoro-2,2-dimethylpropanamide], the inhibition at 1 µM turned out to be 95.5%, the inhibition at 10 µM worked out at 99.2% and the IC50 was more than 100 nM.

Consider `CC(C)(C)C(=O)NCc1ccc(Cl)c(-c2nn(-c3ccc(C(F)(F)F)cc3)c(=O)[nH]2)c1F` [Example-84, N-(4-Chloro-2-fluoro-3-(5-oxo-1-(4-(trifluoromethyl)phenyl)-4,5-dihydro-1H-1,2,4-triazol-3-yl)benzyl)pivalamide], for which the inhibition at 1 µM worked out at 98.8%, the inhibition at 10 µM was 99.5% and the IC50 was less than 50 nM.

As to `O=c1[nH]c(-c2c(F)cccc2Cl)nn1-c1ccc(C#Cc2ccc(F)nc2)cc1` [Example-5, 5-(2-Chloro-6-fluorophenyl)-2-{4-[(6-fluoropyridin-3-yl)ethynyl]phenyl}-2,4-dihydro-3H-1,2,4-triazol-3-one], the inhibition at 1 µM was determined as 91.8%, the inhibition at 10 µM was 86.2% and the IC50 was less than 50 nM.

As to `CC(C)(C)C(=O)NCc1cc(-c2nn(-c3ccc(C(F)(F)F)cc3)c(=O)[nH]2)c(Cl)cc1F` [Example-114, N-(4-Chloro-2-fluoro-5-(1-(4-(trifluoromethyl)phenyl)-4,5-dihydro-S-oxo-1H-1,2,4-triazol-3-yl)benzyl)pivalamide], the inhibition at 1 µM was 99.1%, the inhibition at 10 µM is 98.4% and the half-inhibitory concentration (IC50) was less than 50 nM.

As to `CC(C)C(=O)NCc1cnc(C(F)F)c(-c2nn(-c3ccc(C(F)(F)F)cc3)c(=O)[nH]2)c1` [Example-187, N-((6-(Difluoromethyl)-5-(5-oxo-1-(4-(trifluoromethyl)phenyl)-4,5-dihydro-1H-1,2,4-triazol-3-yl)pyridin-3-yl)methyl)isobutyramide], the inhibition at 1 µM stood at 98.6%, the inhibition at 10 µM amounted to 97.5% and the concentration for half-maximal inhibition (IC50) was less than 50 nM.

Regarding `O=c1[nH]c(-c2c(F)cccc2Cl)nn1-c1ccc(-c2nc(-c3ccc(F)cc3)no2)cc1` [Example-30, 3-(2-Chloro-6-fluorophenyl)-1-(4-(3-(4-fluorophenyl)-1,2,4-oxadiazol-5-yl)phenyl)-1H-1,2,4-triazol-5(4H)-one], the inhibition at 1 µM came to 89.6%, the inhibition at 10 µM came out at 94.5% and the IC50 was less than 50 nM.

On to `O=c1[nH]c(-c2c(F)cccc2Cl)nn1-c1ccc(C#Cc2ccncc2Cl)cc1` [Example-14, 5-(2-Chloro-6-fluorophenyl)-2-{4-[(3-chloropyridin-4-yl)ethynyl]phenyl}-2,4-dihydro-3H-1,2,4-triazol-3-one], for which the inhibition at 1 µM worked out at 96%, the inhibition at 10 µM was 95.8% and the IC50 lay within 50 to 100 nM.

As to `CC(C)(C)C(=O)NCc1ccc(Cl)c(-c2nn(-c3ccc(C(F)(F)F)cc3F)c(=O)[nH]2)c1` [Example-163, N-(4-Chloro-3-(1-(2-fluoro-4-(trifluoromethyl)phenyl)-4,5-dihydro-5-oxo-1H-1,2,4-triazol-3-yl)benzyl)pivalamide], the inhibition at 1 µM worked out at 91.8%, the inhibition at 10 µM is 98.7% and the half-maximal inhibitory concentration (IC50) was less than 50 nM.

As for `O=C(NCc1ccc(Cl)c(-c2nn(-c3ccc(C(F)(F)F)cc3)c(=O)[nH]2)c1)C1CCCC1` [Example-185, N-(4-Chloro-3-(5-oxo-1-(4-(trifluoromethyl)phenyl)-4,5-dihydro-1H-1,2,4-triazol-3-yl)benzyl)cyclopentanecarboxamide], the inhibition at 1 µM turned out to be 96.1%, the inhibition at 10 µM was 98.3% and the IC50 is less than 50 nM.

For orientation: inhibition means the share of the control response that was lost under treatment. The term IC50 denotes the point on the concentration scale where inhibition reaches its midpoint.
